Values joined by “and” are separate entries in the source; they are usually repeats but may differ in a detail not shown here. Identical values can stand only once.
Settings: instrument: DT, single field, calibrated with Agilent tune mix (Agilent)

With `Nc1cccc(C(=O)O)c1O` [3-Aminosalicylic acid] the “collision cross section (N2)” value ([M-H]-) was 122.07 Å².

In the case of `CC(O)(CC(=O)O)CC(=O)O` [3-Hydorxy-3-methylglutaric acid], the “collision cross section (N2)” value ([M-H]-) is reported as 123.66 Å².

For `O=C(O)Cc1cccc(O)c1` [3-Hydroxyphenylacetic acid], the “collision cross section (N2)” value ([M+Na-2H]-) was 135.74 Å².

For `N[C@@H](Cc1ccc(O)c(I)c1)C(=O)O` [3-Iodo-L-tyrosine], the “collision cross section (N2)” value ([M+H]+) was 158.8 Å² and the “collision cross section (N2)” value ([M+Na-2H]-) was 148.03 Å².

For `CC(CCC(=O)O)CC(=O)O` (centres undefined) [3-Methyladipic acid], the “collision cross section (N2)” value ([M-H]-) was 129.01 Å².

In the case of `CC(C)CC(=O)SCCNC(=O)CCNC(=O)[C@H](O)C(C)(C)COP(=O)(O)OP(=O)(O)OC[C@H]1O[C@@H](n2cnc3c(N)ncnc32)[C@H](O)[C@@H]1OP(=O)(O)O` [3-Methylbutanoyl-CoA], the “collision cross section (N2)” value ([M-H]-) is reported as 255.72 Å².

For `O=C(O)CCc1ccccc1` [3-Phenylpropanoic acid], the “collision cross section (N2)” value ([M-H]-) was 135.74 Å².

In the case of `NC(=O)NCCC(=O)O` [3-Ureidopropionate], the “collision cross section (N2)” value ([M+Na]+) is reported as 132.3 Å².

For `C[C@]12CC[C@@H](O)C[C@@H]1CC[C@@H]1[C@@H]2CC[C@]2(C)C(=O)CC[C@@H]12` [3alpha-Hydroxy-5alpha-androstan-17-one], the “collision cross section (N2)” value ([M-H]-) was 176.71 Å².

In the case of `O=C(O)/C=C/c1ccc(O)cc1` [4-Hydroxycinnamic acid], the “collision cross section (N2)” value ([M+H-H2O]+) is reported as 127 Å² and the “collision cross section (N2)” value ([M-H]-) is reported as 129.27 Å².

In the case of `CC1=C(/C=C/C(C)=C/C=C/C(C)=C/CO)C(C)(C)CCC1=O` [4-Oxoretinol], the “collision cross section (N2)” value ([M+H-H2O]+) is reported as 173.3 Å².

With `Cc1ncc(CO)c(C(=O)O)c1O` [4-Pyridoxic acid] the “collision cross section (N2)” value ([M+H]+) was 135.3 Å² and 135.8 Å².

For `NCCCCC(=O)O` [5-Aminopentanoic acid], the “collision cross section (N2)” value ([M+H]+) was 121.3 Å² and the “collision cross section (N2)” value ([M-H]-) was 124.49 Å².

For `NC[C@H](O)CC[C@H](N)C(=O)O` [5-Hydroxy-L-lysine], the “collision cross section (N2)” value ([M+H]+) was 135.1 Å² and the “collision cross section (N2)” value ([M-H]-) was 131.7 Å².

With `O=C(O)Cc1c[nH]c2ccc(O)cc12` [5-Hydroxyindoleacetate] the “collision cross section (N2)” value ([M+H]+) was 140.9 Å².

For `OCCc1c[nH]c2ccc(O)cc12` [5-Hydroxytryptophol], the “collision cross section (N2)” value ([M+H]+) was 138.7 Å² and the “collision cross section (N2)” value ([M-H]-) was 134.49 Å².

With `C[C@H](NC(=O)CC[C@H](N)C(=O)O)C(=O)O` [5-L-Glutamyl-L-alanine] the “collision cross section (N2)” value ([M+H]+) was 149.6 Å² and the “collision cross section (N2)” value ([M-H]-) was 140.25 Å².

In the case of `COc1ccc2[nH]cc(CCN(C)C)c2c1` [5-Methoxydimethyltryptamine], the “collision cross section (N2)” value ([M+H]+) is reported as 151.5 Å² and the “collision cross section (N2)” value ([M-H]-) is reported as 153.76 Å².

For `COc1ccc2[nH]cc(CC(=O)O)c2c1` [5-Methoxyindoleacetate], the “collision cross section (N2)” value ([M+H]+) was 144 Å².

For `COc1ccc2[nH]cc(C[C@H](N)C(=O)O)c2c1` [5-methoxytryptophan], the “collision cross section (N2)” value ([M+Na]+) was 156.2 Å² and the “collision cross section (N2)” value ([M-H]-) was 154.36 Å².

In the case of `C[C@]12CCC(=O)C=C1CC[C@@H]1[C@@H]2CC[C@@]2(C)[C@H]1CC[C@]2(O)C(=O)CO` [11-Deoxycortisol], the “collision cross section (N2)” value ([M-H]-) is reported as 183.12 Å².

In the case of `CC(=O)[C@H]1CC[C@H]2[C@@H]3CCC4=CC(=O)CC[C@]4(C)[C@H]3[C@@H](O)C[C@]12C` [11beta-Hydroxyprogesterone], the “collision cross section (N2)” value ([M+H]+) is reported as 182.3 Å² and the “collision cross section (N2)” value ([M-H2O-H]-) is reported as 180.95 Å².

With `CCCCC/C=C/C=C1/C(=O)C=C[C@@H]1C/C=C\CCCC(=O)O` [15-Deoxy-delta-12,14-PGJ2] the “collision cross section (N2)” value ([M+Na]+) was 192.5 Å².

For `C[C@H](CCCC(C)(C)O)[C@H]1CC[C@H]2[C@@H]3CC=C4C[C@@H](O)CC[C@]4(C)[C@H]3CC[C@]12C` [25-Hydroxycholesterol], the “collision cross section (N2)” value ([M-H]-) was 202.81 Å².

For `CCCCC/C=C\C/C=C\C/C=C\CCCCC(=O)O` [(6,9,12)-Linolenic acid], the “collision cross section (N2)” value ([M+H]+) was 174.1 Å².

In the case of `CC(=O)OP(=O)(O)O` [Acetyl phosphate], the “collision cross section (N2)” value ([M+Na]+) is reported as 142.7 Å².

In the case of `CC(=O)SCCNC(=O)CCNC(=O)[C@H](O)C(C)(C)COP(=O)(O)OP(=O)(O)OC[C@H]1O[C@@H](n2cnc3c(N)ncnc32)[C@H](O)[C@@H]1OP(=O)(O)O` [Acetyl-CoA], the “collision cross section (N2)” value ([M+H]+) is reported as 244.7 Å².

For `Nc1ncnc2c1ncn2[C@@H]1O[C@@H]2COP(=O)(O)O[C@H]2[C@H]1O` [Adenosine 3',5'-cyclic phosphate], the “collision cross section (N2)” value ([M+H]+) was 176.8 Å².

With `Nc1ncnc2c1ncn2[C@@H]1O[C@H](COP(=O)(O)OP(=O)(O)OP(=O)(O)O)[C@@H](O)[C@H]1O` [Adenosine 5'-triphosphate] the “collision cross section (N2)” value ([M+H]+) was 196.4 Å² and the “collision cross section (N2)” value ([M-H]-) was 185.74 Å².

With `Nc1ncnc2c1ncn2[C@@H]1O[C@H](COP(=O)(O)O)[C@@H](O)[C@H]1O` [Adenosine monophosphate (AMP)] the “collision cross section (N2)” value ([M+H]+) was 171.4 Å².

With `O=C(O)CCCCC(=O)O` [Adipic acid] the “collision cross section (N2)” value ([M+Na-2H]-) was 129.61 Å².

In the case of `O=P(O)(O)OC[C@H]1O[C@H](OP(=O)(O)O)[C@H](O)[C@@H](O)[C@@H]1O` [Alpha-D-Glucose 1,6-bisphosphate], the “collision cross section (N2)” value ([M+Na-2H]-) is reported as 159.11 Å².

In the case of `OC[C@H]1O[C@H](O)[C@H](O)[C@@H](O)[C@@H]1O` [Alpha-D-Glucose], the “collision cross section (N2)” value ([M+Na]+) is reported as 146.2 Å².

With `C[C@]12CCC(=O)C=C1CC[C@@H]1[C@@H]2CC[C@]2(C)C(=O)CC[C@@H]12` [Androstendione] the “collision cross section (N2)” value ([M-H]-) was 172.77 Å².

For `C[C@]12CC[C@@H](O)C[C@@H]1CC[C@@H]1[C@@H]2CC[C@]2(C)C(=O)CC[C@@H]12` [Androsterone], the “collision cross section (N2)” value ([M+H-H2O]+) was 166.6 Å².

For `COC(=O)[C@H](Cc1ccccc1)NC(=O)[C@@H](N)CC(=O)O` [Aspartame], the “collision cross section (N2)” value ([M+H]+) was 169.6 Å² and the “collision cross section (N2)” value ([M-H]-) was 166.71 Å².

In the case of `O=C1CC(=O)NC(=O)N1` [Barbituric acid], the “collision cross section (N2)” value ([M-H]-) is reported as 112.69 Å².

In the case of `C[C@]12CC[C@@H]3c4ccc(O)cc4CC[C@H]3[C@@H]1CC[C@@H]2O` [Beta-Estradiol], the “collision cross section (N2)” value ([M-H]-) is reported as 173.34 Å².

In the case of `C=CC1=C(C)/C(=C/c2[nH]c(Cc3[nH]c(/C=C4\NC(=O)C(C)=C4C=C)c(C)c3CCC(=O)O)c(CCC(=O)O)c2C)NC1=O` [Bilirubin], the “collision cross section (N2)” value ([M-H]-) is reported as 247.18 Å².

For `Nc1ccn([C@@H]2O[C@H](COP(=O)(O)OP(=O)(O)O)[C@@H](O)[C@H]2O)c(=O)n1` [CDP], the “collision cross section (N2)” value ([M+H]+) was 175.1 Å².

For `CCCCCCCCCC(=O)O` [Capric acid], the “collision cross section (N2)” value ([M-H]-) was 146.87 Å².

In the case of `O=C(/C=C/c1ccc(O)c(O)c1)O[C@@H]1C[C@](O)(C(=O)O)C[C@@H](O)[C@H]1O` [Chlorogenic acid], the “collision cross section (N2)” value ([M+H]+) is reported as 185.1 Å² and the “collision cross section (N2)” value ([M+Na-2H]-) is reported as 173.79 Å².

In the case of `C[C@H](CCC(=O)O)[C@H]1CC[C@H]2[C@@H]3[C@H](O)C[C@@H]4C[C@H](O)CC[C@]4(C)[C@H]3C[C@H](O)[C@]12C` [Cholic acid], the “collision cross section (N2)” value ([M+Na]+) is reported as 197.3 Å² and the “collision cross section (N2)” value ([M-H]-) is reported as 200.72 Å².

With `CC(C)(COP(=O)(O)OP(=O)(O)OC[C@H]1O[C@@H](n2cnc3c(N)ncnc32)[C@H](O)[C@@H]1OP(=O)(O)O)[C@@H](O)C(=O)NCCC(=O)NCCS` [Coenzyme A] the “collision cross section (N2)” value ([M+H]+) was 240.4 Å² and the “collision cross section (N2)” value ([M-H]-) was 241.54 Å².

In the case of `C[C@]12CCC(=O)C=C1CC[C@@H]1[C@@H]2CC[C@@]2(C)[C@H]1CC[C@]2(O)C(=O)CO` [Cortexolone], the “collision cross section (N2)” value ([M+H]+) is reported as 187.4 Å².

In the case of `C[C@]12C[C@H](O)[C@H]3[C@@H](CCC4=CC(=O)CC[C@@]43C)[C@@H]1CC[C@@H]2C(=O)CO` [Corticosterone], the “collision cross section (N2)” value ([M+H]+) is reported as 186.8 Å² and the “collision cross section (N2)” value ([M-H]-) is reported as 186.46 Å².

For `COc1cc(/C=C/C(=O)CC(=O)/C=C/c2ccc(O)c(OC)c2)ccc1O` [Curcumin], the “collision cross section (N2)” value ([M+H]+) was 201.6 Å² and the “collision cross section (N2)” value ([M+Na-2H]-) was 178.82 Å².

In the case of `N[C@@H](CSS(=O)(=O)O)C(=O)O` [Cysteine-S-sulfate], the “collision cross section (N2)” value ([M+H]+) is reported as 144.2 Å² and the “collision cross section (N2)” value ([M+Na-2H]-) is reported as 133.29 Å².

For `Nc1ccn([C@@H]2O[C@H](COP(=O)(O)OP(=O)(O)O)[C@@H](O)[C@H]2O)c(=O)n1` [Cytidine 5'-diphosphate], the “collision cross section (N2)” value ([M-H]-) was 171.31 Å².

With `N[C@H](CC(=O)O)C(=O)O` [D-Aspartic acid] the “collision cross section (N2)” value ([M-H]-) was 116.91 Å².

With `O=C(CO)[C@@H](O)[C@H](O)[C@H](O)COP(=O)(O)O` [D-Fructose-6-phosphate] the “collision cross section (N2)” value ([M+Na]+) was 154.2 Å².

With `OC1OC[C@@H](O)[C@@H](O)[C@H]1O` (stereo partly drawn) [D-Ribose] the “collision cross section (N2)” value ([M+Na]+) was 135.3 Å².

With `OC[C@@H](O)[C@@H](O)[C@H](O)[C@@H](O)CO` [D-Sorbitol] the “collision cross section (N2)” value ([M+Na]+) was 142.5 Å² and the “collision cross section (N2)” value ([M-H]-) was 129.64 Å².

With `O=C(O)[C@H]1OC(O)[C@H](O)[C@@H](O)[C@H]1O` (stereo partly drawn) [D-galacturonic acid] the “collision cross section (N2)” value ([M+Na]+) was 143.7 Å² and the “collision cross section (N2)” value ([M-H]-) was 128.3 Å².

With `O=C([O-])[C@H](O)[C@@H](O)[C@H](O)[C@H](O)CO` [D-gluconate] the “collision cross section (N2)” value ([M+Na]+) was 145.8 Å².

Reference: the C3SDB collision cross section collection
